What was measured:
[1] = tested on: OA articular chondrocytes; test: Expression of OA chondrocyte phenotype marker genes by RT-qPCR after peptide exposure; format: cell-based, human; design: key: [—] denotes the absence of a significant effect or a significantly decreased expression of chondrogenic marker BAPX1/NKX3.2 or an increased expression of OA chondrocyte phenotypic markers ALP, MMP13, ADAMTS5, COX2, COL10A and RUNX2 in OA articular chondrocytes, in comparison to untreated OA articular chondrocyts; settings: Table 1, 20-mer peptides with native cysteines; vs untreated OA articular chondrocytes
[2] = tested on: OA articular chondrocytes; test: as above; format: cell-based, human; design: key: [—] denotes the absence of a significant effect or a significantly decreased expression of chondrogenic marker BAPX1/NKX3.2 or an increased expression of OA chondrocyte phenotypic markers ALP, MMP13, ADAMTS5, COX2, COL10A and RUNX2 in OA articular chondrocytes, in comparison to untreated OA articular chondrocyts; settings: Table 1, 20-mer peptides with native cysteines; vs untreated OA articular chondrocytes; remark: listed apart in the source
Experimental: The action of 20-mer peptides (10 nM) of SEQ ID NO: 2-15 (peptides with 1 amino acids intervals (19 amino acid overlap)) and SEQ ID NO:49 on the expression of the indicated genes was determined on a validated pool of passage 2 OA human articular chondrocytes (n=18) and compared to full-length recombinant BMP-7 (1 nM). Samples were harvested after 24 hours and analyzed for indicated genes by RT-qPCR (corrected for 28S rRNA expression and relative to control conditions (no peptide exposure)). In the graphs, numbers on the x-axis represent individual peptides according to their SEQ ID NO:, error bars represent mean±SEM, statistical differences were calculated (one-way ANOVA with bonferroni correction) to control condition. *=p<0.05 lower than control condition for COL10A1, ALP, RUNX2, COX-2, MMP13 and ADAMTS5 and higher than control condition for BAPX1/NKX3.2. Random peptide is a peptide according to SEQ ID NO: 49 with amino acid sequence […].

[3] = tested on: Cartilage explants from OA patient's knee cartilage; test: PGE2 levels via ELISA in cartilage explants; format: cell-based, human; settings: 14 days; BMP-7 1 nM, peptides 10 nM
Experimental: Cartilage explants of 3 mm^2 were taken from OA patient's knee cartilage (n=6) and treated with BMP-7 (1 nM), with peptide […] (SEQ ID NO: 8) at 10 nM or a scrambled irrelevant control peptide (10 nM) for 14 days. Prostaglandin E2 (PGE2) levels, a pro-hypertrophic factor, were determined via an ELISA.

[4] = tested on: Cartilage explants; test: Safranin-O staining of glycosaminoglycans in cartilage explants; format: cell-based, human; settings: 14 days; BMP-7 1 nM, SEQ ID NO: 8 10 nM; 2 patients
Experimental: Cartilage explants obtained from 2 patients were cultured for 14 days in the presence of BMP-7 (1 nM) or BMP-7 mimicking peptide […] (SEQ ID NO: 8) at 10 nM. Glycosaminoglycans (GAGs), an important component of the extracellular matrix (ECM), were stained with Safranin-O (in red) and other tissues are counterstained with Fast green (in green/blue).

[5] = tested on: Synovial tissue, Hoffa's fat pad tissue and meniscus tissue samples from OA patients; test: PGE2 levels via ELISA in synovial, Hoffa's fat pad and meniscus tissue samples; format: cell-based, human; settings: 24 h; BMP-7 1 nM, peptides 10 nM
Experimental: Synovial tissue samples from OA patients (n=6) were treated with BMP-7 (1 nM), with peptide […] (SEQ ID NO: 8) at 10 nM or a scrambled irrelevant control peptide (10 nM) for 24 h. PGE2 levels were determined via an ELISA.
Hoffa's fat pad tissue samples from OA patients (n=6) were treated with BMP-7 (1 nM) with peptide […] (SEQ ID NO: 8) at 10 nM or a scrambled irrelevant control peptide (10 nM) for 24 h. PGE2 levels were determined via an ELISA.
Meniscus tissue samples from OA patients (n=6) were treated with BMP-7 (1 nM) with peptide […] (SEQ ID NO: 8) at 10 nM or a scrambled irrelevant control peptide (10 nM) for 24 h. PGE2 levels were determined via an ELISA.

[6] = tested on: OA articular chondrocytes; test: Expression of OA chondrocyte phenotype marker genes by RT-qPCR after peptide exposure; format: cell-based, human; settings: independent of the tested concentration (1000, 100, 10 and 1 nM were tested)
[7] = tested on: Isolated chondrocytes from OA patients; test: Treatment of isolated chondrocytes from OA patients, gene expression via qRT-PCR; format: cell-based, human; settings: 1 nM, 24 h, n=6
Experimental: Isolated chondrocytes from OA patients (n=6) were treated with BMP-7 (1 nM) or the 12-mer peptide according to SEQ ID NO: 16 (1 nM) for 24 h. Pro-chondrogenic (FIG. 9A) and hypertrophic (FIGS. 9B, 9C and 9D) gene expression was determined via qRT-PCR and normalized for 28S rRNA levels.

[8] = tested on: cartilage explants from OA patient's knee articular cartilage; test: Treatment of cartilage explants, hypertrophic gene expression via qRT-PCR; format: cell-based, human; settings: BMP-7 1 nM, SEQ ID NO: 16 10 nM, 24 h
Experimental: 4 mm2 cartilage explants were taken from non-lesion areas of OA patient's knee articular cartilage (n=5) and randomly assigned to different experimental treatment conditions (4 explants per treatment group). After a 24 h equilibration period the explants were treated with BMP-7 (1 nM) or the 12-mer peptide according to SEQ ID NO: 16 (10 nM) for 24 h. Hypertrophic gene expression was determined via qRT-PCR and normalized for 28S rRNA levels. After treatment with BMP-7 or the 12 mer we observed a downregulation of pro-hypertrophic genes, such as Col10a1 (FIG. 10A) and MMP13 (FIG. 10B).

[9] = tested on: Osteoarthritic chondrocytes; test: BMP-7 rescue of OA-associated chondrocyte phenotype (FIG. 1); format: cell-based
Experimental: Osteoarthritic chondrocytes display a typical phenotype that is characterized by decreased expression of SOX9, COL2A1, ACAN and BAPX1/NKX3.2 and an increased expression of RUNX2, COL10A1, ALP, MMP13, ADAMTSS, COX-2 and IL-6 mRNAs (see left panel).
Functional ALP enzyme activity in cell lysates and PGE2 secretion in the culture medium was also normalized upon BMP-7 treatment of OA chondrocytes (right panel).
Expression of indicated mRNAs was determined by RT-qPCR, relatively to control conditions (normalized for 28S rRNA expression). In graphs, error bars represent mean±SEM, statistical differences were calculated as compared to healthy condition. *=p<0.05.

[10] = tested on: OA; settings: intra-articular administration, rats; cited from earlier work
[11] = tested on: OA patients; settings: intra-articular injection, phase-1; cited from earlier work
[12] = BMP-7 treatment of OA chondrocytes

40 (WIIAPEGYAAYYCEGECAFP; homo sapiens) [compound 40]
ALP expression [1]: — | BAPX1/NKX3.2 expression [1]: — | COL10A expression [1]: — | COX-2 expression [1]: — | MMP13 expression [1]: — | RUNX2 expression [1]: — | ADAMTS5 expression [2]: —

GYAAYYSEGESAFPLNSYMN (homo sapiens) [SEQ ID NO: 8]
PGE2 levels in the cartilage [3]: reduce PGE2 levels | Safranin-O intensity (GAGs) compared to control [4]: increased Safranin-O intensity | PGE2 levels in the surrounding tissues (synovial, Hoffa's fat pad, meniscus) [5]: reduce PGE2 levels | suppression of the OA chondrocyte phenotype [6]: efficiently suppressed

YSEGESAFPLNS (homo sapiens) [SEQ ID NO: 16]
COL10A1 gene expression (pro-hypertrophic) [7]: downregulation | COX-2 gene expression (pro-hypertrophic) [7]: downregulation | Col2a1 gene expression (pro-chondrogenic) [7]: upregulation | RUNX2 gene expression (pro-hypertrophic) [7]: downregulation | Col10a1 gene expression [8]: downregulation | MMP13 gene expression [8]: downregulation

43 (LNAISVLYFDDSSNVILKKY; homo sapiens) [compound 43]
ALP expression [1]: — | BAPX1/NKX3.2 expression [1]: — | COL10A expression [1]: — | COX-2 expression [1]: — | MMP13 expression [1]: — | RUNX2 expression [1]: — | ADAMTS5 expression [2]: —

B1: bone morphogenetic protein-7 (protein)
chain: STGSKQRSQNRSKTPKNQEALRMANVAENSSSDQRQACKKHELYVSFRDLGWQDWIIAPEGYAAYYCEGECAFPLNSYMNATNHAIVQTLVHFINPETVPKPCCAPTQLNAISVLYFDDSSNVILKKYRNMVVRACGCH
modifications: homo sapiens
notes: full-length recombinant human BMP-7, mature polypeptide of 139 amino acids
COL10A1 gene expression (pro-hypertrophic) [7]: downregulation | COX-2 gene expression (pro-hypertrophic) [7]: downregulation | Col2a1 gene expression (pro-chondrogenic) [7]: upregulation | RUNX2 gene expression (pro-hypertrophic) [7]: downregulation | concentration at which OA chondrocyte-phenotype suppressive action is most pronounced [9]: around 1 nM | OA-associated chondrocyte phenotype (expression of SOX9, COL2A1, ACAN, BAPX1/NKX3.2, RUNX2, COL10A1, ALP, MMP13, ADAMTS5, COX-2, IL-6 mRNAs) ([9]; BMP-7 1 nM): able to rescue | effects on the chondrocyte phenotype at high concentration ([9]; BMP-7 concentrations higher than 1 nM (eg 10 nM or 100 nM)): opposite and negative effects | Functional ALP enzyme activity in cell lysates [9, 12]: normalized | PGE2 secretion in the culture medium [9, 12]: normalized | OA development and progression [10]: protects against OA development and delays progression of OA | PGE2 levels in the cartilage [3]: reduce PGE2 levels | adverse events [11]: no serious adverse events | Safranin-O intensity (GAGs) compared to control [4]: increased Safranin-O intensity | PGE2 levels in the surrounding tissues (synovial, Hoffa's fat pad, meniscus) [5]: reduce PGE2 levels | Col10a1 gene expression [8]: downregulation | MMP13 gene expression [8]: downregulation

— US20220023386A1, “METHOD FOR THE TREATMENT OR PREVENTION OF OSTEOARTHRITIS” (Chondropeptix B.V., priority 2016, published 2022)
